Structures are written as SMILES. Bounds are passed on as bounds.

This test deals with T1, MEK1^CA (human GST-MEK1, constitutively active, Ser218Asp and Ser222Asp) (Homo sapiens, UniProt Q02750, S218D/S222D).
T1 construct: GST; made in house; host or cells: Escherichia coli
T1 sequence (Q02750 whole entry S218D/S222D): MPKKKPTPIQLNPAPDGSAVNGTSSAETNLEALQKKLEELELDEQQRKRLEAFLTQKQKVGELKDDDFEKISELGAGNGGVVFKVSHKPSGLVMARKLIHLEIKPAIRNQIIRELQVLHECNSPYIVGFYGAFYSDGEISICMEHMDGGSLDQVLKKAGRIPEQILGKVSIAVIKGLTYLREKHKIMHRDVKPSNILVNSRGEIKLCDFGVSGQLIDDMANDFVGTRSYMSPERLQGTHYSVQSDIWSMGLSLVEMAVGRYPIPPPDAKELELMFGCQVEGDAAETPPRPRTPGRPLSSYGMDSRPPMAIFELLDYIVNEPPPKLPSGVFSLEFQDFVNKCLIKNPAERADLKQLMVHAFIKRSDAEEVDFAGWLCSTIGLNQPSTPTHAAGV
As to the kind of experiment: MEK1 enzymatic activity assay (MEK1^CA / ERK2 / MBP, [γ-33P]ATP incorporation). Format: biochemical. The note with it: Table 1, compounds of formula I; read-out: Avg IC50. The gist of the method: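 Cascade assay: 25 µl reactions with 0.002 nmol E. coli-expressed GST-MEK1 S218D/S222D, 0.02 nmol His-tagged mouse ERK2, 0.25 nmol MBP, 0.25 nmol unlabeled ATP and 0.1 µCi [γ-33P]ATP. Compound preincubated 30 min at ambient temperature with MEK1/ERK2; stopped with TCA, 33P-labelled protein filter-captured and scintillation-counted.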
Broadly, the IC50 is the concentration needed to halve the response being measured. `CC(CO)NC(=N)c1c(O)nsc1Nc1ccc(Oc2ccc(C(F)(F)F)cc2)cc1` (stereo not shown) [compound 377]: the IC50 was more than 500 nM.
With `CC(CO)NC(=N)c1c(O)nsc1Nc1ccc(Oc2ccc(C(F)(F)F)cc2)c(F)c1` (stereo not shown) [compound 378] the figure was 100 to 500 nM.
Consider `Cc1cc(Nc2snc(O)c2C(=N)NC(C)C)ccc1Oc1cc(F)ccc1Cl` [compound 380], for which the IC50 fell in the range of 100 to 500 nM.
On to `CC(C)NC(=N)c1c(O)nsc1Nc1ccc(Oc2cc(F)ccc2Cl)c(Cl)c1` [compound 382], for which the IC50 was in the range of 1 to 100 nM.
With `CC(C)NC(=N)c1c(O)nsc1Nc1ccc(Oc2cccc(Cl)c2Cl)c(Cl)c1` [compound 383] the figure was 1 to 100 nM; with `CC(C)NC(=N)c1c(O)nsc1Nc1ccc(Oc2cc(C(F)(F)F)ccc2Cl)cc1F` [compound 384], 100 to 500 nM; with `CC(CO)N=C(N)c1c(O)nsc1Nc1ccc(Oc2cc(C(F)(F)F)ccc2I)cc1` (stereo not shown) [compound 385], 1 to 100 nM.
The figure for `Cc1cc(Nc2snc(O)c2C(=N)NC(C)CO)ccc1Oc1ccc(C(F)(F)F)cc1` (stereo not shown) [compound 386] is more than 500 nM; for `CC(C)NC(=N)c1c(O)nsc1Nc1ccc(Oc2ccc(F)cc2)c(Cl)c1` [compound 387] it is 100 to 500 nM; for `CC(C)NC(=N)c1c(O)nsc1Nc1ccc(Oc2ccc(C(F)(F)F)cc2)c(Cl)c1` [compound 388] it is 100 to 500 nM.
The figure for `Cc1cc(Nc2snc(O)c2C(=N)NC(C)C)ccc1Oc1ccc(C(F)(F)F)cc1` [compound 389] is more than 500 nM.
`CC(C)NC(=N)c1c(O)nsc1Nc1ccc(Oc2ccc(C(F)(F)F)cc2)c(F)c1` [compound 390]: the IC50 was 100 to 500 nM.
The figure for `CC(C)NC(=N)c1c(O)nsc1Nc1ccc(Oc2ccc(C(F)(F)F)cc2)cc1` [compound 391] is 100 to 500 nM; for `CC(CO)NC(=N)c1c(O)nsc1Nc1ccc(Oc2ccc(F)cc2)c(Cl)c1` (stereo not shown) [compound 392] it is 100 to 500 nM; for `CC(CO)NC(=N)c1c(O)nsc1Nc1ccc(Oc2ccc(F)cc2)c(F)c1` (stereo not shown) [compound 393] it is 1 to 100 nM.
The figure for `CC(CO)NC(=N)c1c(O)nsc1Nc1ccc(Oc2cc(C(F)(F)F)ccc2Cl)cc1F` (stereo not shown) [compound 394] is 1 to 100 nM.
With `CC(C)NC(=N)c1c(O)nsc1Nc1ccc(Oc2ccc(F)cc2)c(F)c1` [compound 395] the figure was 100 to 500 nM; with `CC(CO)NC(=N)c1c(O)nsc1Nc1ccc(Oc2ccc(C(F)(F)F)cc2)c(Cl)c1` (stereo not shown) [compound 396], 100 to 500 nM.
For `Cc1cc(Nc2snc(O)c2C(=N)NC(C)C)ccc1Oc1ccc(F)cc1` [compound 397], the half-maximal inhibitory concentration (IC50) was more than 500 nM.
The figure for `CC(C)NC(=N)c1c(O)nsc1Nc1ccc(Oc2ccc(F)cc2F)c(F)c1` [compound 398] is 100 to 500 nM; for `Cc1cc(Oc2ccc(F)cc2Cl)ccc1Nc1snc(O)c1C(=N)NC(C)C` [compound 401] it is 1 to 100 nM.
With `Cc1cc(Oc2ccc(Cl)cc2F)ccc1Nc1snc(O)c1C(=N)NC(C)C` [compound 402] the figure was 1 to 100 nM.
With `CC(C)NC(=N)c1c(O)nsc1Nc1ccc(Oc2ccc(F)cc2Cl)cc1C(F)(F)F` [compound 407] the figure was 1 to 100 nM; with `CC(CO)NC(=N)c1c(O)nsc1Nc1ccc(Oc2ccc(F)cc2Cl)cc1C(F)(F)F` (stereo not shown) [compound 408], 1 to 100 nM.
With `CCOC(=O)c1cccc(Oc2ccc(Nc3snc(O)c3C(=N)NC(C)C)cc2)c1` [compound 410], the 50% inhibitory concentration (IC50) lay in the range of 1 to 100 nM.
The figure for `N=C(NCCO)c1c(O)nsc1Nc1ccc(Oc2cc(F)cc(F)c2)cc1` [compound 411] is 100 to 500 nM.
With `N=C(NCCN1CCNCC1)c1c(O)nsc1Nc1ccc(Oc2cc(F)cc(F)c2)cc1` [compound 412] the figure was 1 to 100 nM; with `N=C(NCCN1CCOCC1)c1c(O)nsc1Nc1ccc(Oc2cc(F)cc(F)c2)cc1` [compound 413], 100 to 500 nM.
The figure for `N=C(NCC1CCCO1)c1c(O)nsc1Nc1ccc(Oc2cc(F)cc(F)c2)cc1` (stereo not shown) [compound 414] is 1 to 100 nM.
As to `N=C(NCc1ccccn1)c1c(O)nsc1Nc1ccc(Oc2cc(F)cc(F)c2)cc1` [compound 415], the IC50 was 1 to 100 nM.
The figure for `N=C(NC1CC1)c1c(O)nsc1Nc1ccc(Oc2cc(F)cc(F)c2)cc1` [compound 416] is 100 to 500 nM; for `N=C(c1c(O)nsc1Nc1ccc(Oc2cc(F)cc(F)c2)cc1)N1CCCCC1` [compound 417] it is more than 500 nM.
The figure for `CN(C)CCNC(=N)c1c(O)nsc1Nc1ccc(Oc2cc(F)cc(F)c2)cc1` [compound 418] is 100 to 500 nM; for `CN1CCN(C(=N)c2c(O)nsc2Nc2ccc(Oc3cc(F)cc(F)c3)cc2)CC1` [compound 419] it is more than 500 nM.
With `N=C(c1c(O)nsc1Nc1ccc(Oc2cc(F)cc(F)c2)cc1)N1CCOCC1` [compound 420] the figure was more than 500 nM; with `CC(C)N(O)C(=N)c1c(O)nsc1Nc1ccc(Oc2cc(F)cc(F)c2)cc1` [compound 421], 1 to 100 nM.
As to `CC(O)CNC(=N)c1c(O)nsc1Nc1ccc(Oc2cc(F)cc(F)c2)cc1` (stereo not shown) [compound 422], the half-maximal inhibitory concentration (IC50) is 1 to 100 nM.
On to `N=C(NCC1CCCCC1)c1c(O)nsc1Nc1ccc(Oc2cc(F)cc(F)c2)cc1` [compound 423], for which the IC50 fell in the range of 1 to 100 nM.
The figure for `N=C(NCc1ccccc1)c1c(O)nsc1Nc1ccc(Oc2cc(F)cc(F)c2)cc1` [compound 424] is 1 to 100 nM; for `CN(C)CCNC(=N)c1c(O)nsc1Nc1ccc(Oc2ccc(Cl)cc2Cl)cc1` [compound 425] it is 100 to 500 nM.
With `N=C(NCCN1CCOCC1)c1c(O)nsc1Nc1ccc(Oc2ccc(Cl)cc2Cl)cc1` [compound 426] the figure was 1 to 100 nM; with `N=C(c1c(O)nsc1Nc1ccc(Oc2ccc(Cl)cc2Cl)cc1)N1CCCCC1` [compound 427], more than 500 nM; with `N=C(NCCN1CCNCC1)c1c(O)nsc1Nc1ccc(Oc2ccc(Cl)cc2Cl)cc1` [compound 428], 100 to 500 nM.
For the compound `CC(C)NC(=N)c1c(O)nsc1Nc1ccc(Oc2cccc(F)c2F)nc1` [compound 429], the IC50 lay within 100 to 500 nM.
The figure for `CC(C)NC(=N)c1c(O)nsc1Nc1ccc(Oc2cccc(C(F)(F)F)c2)nc1` [compound 430] is 100 to 500 nM.
With `CC(C)NC(=N)c1c(O)nsc1Nc1ccc(Oc2cc(Cl)ccc2Cl)nc1` [compound 431] the figure was 1 to 100 nM.
`CC(CO)NC(=N)c1c(O)nsc1Nc1ccc(Oc2cccc(F)c2F)nc1` (stereo not shown) [compound 432]: the concentration for half-maximal inhibition (IC50) fell in the range of 100 to 500 nM.
The figure for `CC(CO)NC(=N)c1c(O)nsc1Nc1ccc(Oc2cccc(C(F)(F)F)c2)nc1` (stereo not shown) [compound 433] is 1 to 100 nM; for `CC(CO)NC(=N)c1c(O)nsc1Nc1ccc(Oc2cc(Cl)ccc2Cl)nc1` (stereo not shown) [compound 434] it is 1 to 100 nM; for `N=C(NN1CCCCC1)c1c(O)nsc1Nc1ccc(Oc2cc(F)cc(F)c2)cc1` [compound 435] it is 1 to 100 nM.
The figure for `N=C(NN1CCOCC1)c1c(O)nsc1Nc1ccc(Oc2cc(F)cc(F)c2)cc1` [compound 436] is 100 to 500 nM.
With `Cc1cc(Oc2cccc(C(F)(F)F)c2)ccc1Nc1snc(O)c1C(=N)NC(C)C` [compound 437] the figure was 1 to 100 nM.
For `Cc1cc(Oc2cccc(C(F)(F)F)c2)ccc1Nc1snc(O)c1C(=N)NC(C)CO` (stereo not shown) [compound 438], the IC50 was in the range of 1 to 100 nM.
On to `CC(CO)NC(=N)c1c(O)nsc1Nc1ccccc1Oc1ccccc1` (stereo not shown) [compound 439], for which the 50% inhibitory concentration (IC50) was more than 500 nM.
In the case of `N=C(NCC1CCCCC1)c1c(O)nsc1Nc1ccc(Oc2cc(Cl)ccc2Cl)cc1` [compound 441], the half-inhibitory concentration (IC50) was in the range of 1 to 100 nM.
The figure for `CN(C)CCNC(=N)c1c(O)nsc1Nc1ccc(Oc2cc(Cl)ccc2Cl)cc1` [compound 443] is 1 to 100 nM; for `N=C(NCc1ccccn1)c1c(O)nsc1Nc1ccc(Oc2cc(Cl)ccc2Cl)cc1` [compound 448] it is 1 to 100 nM.
The figure for `N=C(NN1CCCCC1)c1c(O)nsc1Nc1ccc(Oc2cc(Cl)ccc2Cl)cc1` [compound 449] is 1 to 100 nM.
The figure for `N=C(NO)c1c(O)nsc1Nc1ccc(Oc2cc(Cl)ccc2Cl)cc1` [compound 450] is 1 to 100 nM; for `N=C(NCc1ccccc1)c1c(O)nsc1Nc1ccc(Oc2cc(Cl)ccc2Cl)cc1` [compound 454] it is 1 to 100 nM.
As to `CC(C)N(O)C(=N)c1c(O)nsc1Nc1ccc(Oc2cc(Cl)ccc2Cl)cc1` [compound 455], the IC50 was in the range of 1 to 100 nM.
The figure for `CC(C)NC(=N)c1c(O)nsc1Nc1ccccc1Oc1ccccc1` [compound 456] is 100 to 500 nM.
The figure for `Cc1cc(Oc2cc(F)cc(F)c2)ccc1Nc1snc(O)c1C(=N)NC(C)C` [compound 457] is 1 to 100 nM.
With `Cc1cc(Oc2cc(F)cc(F)c2)ccc1Nc1snc(O)c1C(=N)NC(C)CO` (stereo not shown) [compound 458] the figure was 1 to 100 nM; with `Cc1cc(Oc2ccc(F)c(F)c2)ccc1Nc1snc(O)c1C(=N)NC(C)C` [compound 459], 1 to 100 nM; with `Cc1cc(Oc2cc(Cl)ccc2Cl)ccc1Nc1snc(O)c1C(=N)NC(C)C` [compound 460], 1 to 100 nM.
As for `Cc1cc(Oc2cc(Cl)ccc2Cl)ccc1Nc1snc(O)c1C(=N)NC(C)CO` (stereo not shown) [compound 461], the IC50 was in the range of 1 to 100 nM.
The figure for `Cc1cc(Oc2ccc(F)cc2Cl)ccc1Nc1snc(O)c1C(=N)N(O)C(C)C` [compound 462] is 100 to 500 nM; for `Cc1cc(Oc2ccc(F)cc2Cl)ccc1Nc1snc(O)c1C(=N)N(O)Cc1ccccc1` [compound 463] it is 1 to 100 nM.
The figure for `Cc1cc(Oc2cccc(F)c2F)ccc1Nc1snc(O)c1C(=N)NC(C)CO` (stereo not shown) [compound 464] is 1 to 100 nM.
Regarding `Cc1cc(Oc2cc(F)cc(F)c2)ccc1Nc1snc(O)c1C(=N)NO` [compound 465], the IC50 lay in the range of 100 to 500 nM.
For `Cc1cc(Oc2cc(F)cc(F)c2)ccc1Nc1snc(O)c1C(=N)NCC(O)CO` (stereo not shown) [compound 466], the IC50 was 1 to 100 nM.
For `COCC(C)NC(=N)c1c(O)nsc1Nc1ccc(Oc2cc(F)cc(F)c2)cc1C` (stereo not shown) [compound 467], the half-maximal inhibitory concentration (IC50) was 1 to 100 nM.

Source of the values: patent US7652047B2, “Phenylamino isothiazole carboxamidines as MEK inhibitors” (Ardea Biosciences, Inc., priority 2005, dated 2010).
